Key:
Format in all cases: physicochemical
[1] = Solubility of PAG in organic solvents (solvent added until completely dissolved); conditions: for Solubility (w/v %) Cyclohexanone / Solubility (w/v %) PGMEA / Solubility (w/v %) GBL: 20° C.; for Solubility (w/v %) PGMEA / Solubility (w/v %) in PGMEA: Propylene glycol monomethyl ether acetate; for Solubility (w/v %) PGMEA: Table 8; for Solubility (w/v %) in PGMEA: Table 7; for Solubility (w/v %) GBL: γ-Butyrolactone; for Solubility in organic solvents (in words): PGMEA, cyclohexanone, GBL
Source text: Solubility is an important factor in the evaluation of a PAG. High solubility not only makes a PAG purified readily but also enables a PAG to be used for a wide range of concentrations in photoresists and in varied solvent systems. To test the solubility of a PAG, a solvent is slowly added until the PAG is completely dissolved and no turbidity is observed in the clear solution. Table 8 lists the solubility (w/v %) of some representative N-hydroxynaphthalimide sulfonate derivatives versus NIT in various organic solvents at 20° C. […] All compounds except for S-6 and O-12 show much higher solubility than the commercial benchmark (NIT).

[2] = Photoreactivity: photolysis of PAGs in acetonitrile at 365 nm, photoreaction constant from UV-Vis absorbance; conditions: for Relative Photoreactivity (normalized photoreaction constant) at 365 nm: acetonitrile, air, room temperature, 3×10^−5 M, NIT normalized to one; for Solubility x relative Photoreactivity: product of solubility in PGMEA and relative photoreactivity at 365 nm
Source text: A photoresist composition typically comprises PAG, polymers, additives and solvents. The performance of a photoresist composition is mainly dependent on the properties of the PAG and polymer components. To formulate a high-performance photoresist composition, more photosensitive PAGs are typically selected. The photosensitivity of a PAG is typically directly related to the strength of the generated acid and the photoreactivity of the PAG. For a series of PAGs producing the same latent acid, their photosensitivity is related only to their photoreactivity. Thus evaluating the photosensitivity of a PAG can be achieved by studying its photoreactivity. The higher photoreactivity, the higher photosensitivity. The photoreactivity can be investigated by photolysis of a PAG in its dilute solution under low exposure intensity (to avoid side reactions which don't generate the desired acid). The change in the concentration of a PAG upon irradiation can be determined by measuring the absorbance of the PAG at the maximum absorption wavelength.
Photolysis of PAGs was carried out in acetonitrile in air at room temperature. The sodium salt of tetrabromophenol blue (TBPBNa), an acid indicator dye, which has a maximum absorption at 618 nm, was purchased from Aldrich (indicator grade) and used as received. Irradiation of the solution of the PAGs (3×10^−5 M) was performed using a Cole-Parmer UV 15 W bench lamp (EW-97605-50) at 365 nm. Light intensity was measured using an UV Power Puck II radiometer from EIT Inc. UV-Vis spectra were run on a Thermo Scientific Evolution 201 UV-visible spectrophotometer.
Photolysis of NIT, comparative compound A and B, S-3, and S-11 was examined in acetonitrile. The absorption band at 400 nm gradually decreases upon irradiation, indicating the progress of photoreaction with the increase of exposure dose of energy. Assuming the photoreaction is first-order, plot of natural log of changes in absorbance with exposure dose of energy gives the photoreaction constant of S-3 (i.e., the slope of the linear trendline) (FIG. 3). The photoreaction constants of other compounds were similarly determined under the same irradiation condition. Comparing the constants of A, B, S-3, and S-11 with that of NIT normalized to one gives the relative photoreactivity (Table 7). […] The formation of acid upon irradiation was confirmed by observing the spectral changes of the acid indicator, TBPBNa at 618 nm.

[3] = UV absorbance of PAG compounds (FIG. 1); conditions: for Absorbance at i-, h-, and g-lines of a mercury lamp (in words): versus NIT
Source text: FIG. 1 is a graph illustrating the UV absorbance of certain PAG compounds of the invention versus the UV absorbance of certain prior art PAG compounds;
Referring to FIG. 1, the PAG compounds of the invention have excellent solubility in organic solvents and strong absorption at i-, h-, and g-lines of a mercury lamp.

SMILES	Solubility (w/v %) Cyclohexanone [1]	Solubility (w/v %) PGMEA [1]	Solubility (w/v %) in PGMEA [1]	Solubility (w/v %) GBL [1]	Relative Photoreactivity (normalized photoreaction constant) at 365 nm [2]	Solubility x relative Photoreactivity [2]	Solubility in organic solvents (in words) [1]	Strong absorption band [3]	Absorbance at i-, h-, and g-lines of a mercury lamp (in words) [3]
CCCCSc1ccc2c3c(cccc13)C(=O)N(OS(=O)(=O)C(F)(F)F)C2=O [Comparative A, reference compound]	4.1% w/v %	1.1% w/v %	1.1% w/v %	0.9% w/v %	13.5	14.9%			
O=C1c2cccc3c(C#Cc4ccccc4)ccc(c23)C(=O)N1OS(=O)(=O)C(F)(F)F [Comparative B, reference compound]	3.5% w/v %	1.0% w/v %	1.0% w/v %	1.1% w/v %	2.5	2.5%	much lower		
O=C1c2cccc3c(Oc4ccccc4)ccc(c23)C(=O)N1OS(=O)(=O)C(F)(F)F [Compound O-12]	9.0% w/v %	2.0% w/v %		1.6% w/v %				364 nm	much larger than that of NIT
CC(C)Sc1ccc2c3c(cccc13)C(=O)N(OS(=O)(=O)C(F)(F)F)C2=O [Compound S-3]	16.6% w/v %	7.2% w/v %	7.2% w/v %	8.1% w/v %	13.3	95.8%	much higher solubility than comparative compound A	400 nm	much larger than that of NIT
CC(C)(C)c1ccc(Sc2ccc3c4c(cccc24)C(=O)N(OS(=O)(=O)C(F)(F)F)C3=O)cc1 [Compound S-6]	5.3% w/v %	1.9% w/v %		1.2% w/v %				400 nm	much larger than that of NIT
COC(C)CCOC(=O)CCSc1ccc2c3c(cccc13)C(=O)N(OS(=O)(=O)C(F)(F)F)C2=O (stereo not shown) [Compound S-11]	86.4% w/v %	53.9% w/v %	53.9% w/v %	105.7% w/v %	14.2	765.4%	extremely high solubility		
COC(C)CCOC(=O)CCSc1ccc2c3c(cccc13)C(=O)N(OS(=O)(=O)c1ccc(C)cc1)C2=O (stereo not shown) [Compound S-43]	37.5% w/v %	11.7% w/v %		67.8% w/v %			extremely high solubility		
O=C1c2cccc3cccc(c23)C(=O)N1OS(=O)(=O)C(F)(F)F [NIT, N-Hydroxynaphthalimide triflate, reference compound]	5.9% w/v %	1.7% w/v %	1.7% w/v %	2.2% w/v %	1.0	1.7%			

Source: patent US9383644B2, “Sulfonic acid derivative compounds as photoacid generators in resist applications” (Heraeus Precious Metals North America Daychem LLC, priority 2014, dated 2016)
